# From US8124654B2, “Derivatives of hypoestoxide and related compounds” (Immune Modulation, Inc., priority 2008, dated 2012)
# Columns and labels:
# [1] = system: P. falciparum CQ-Resistant (W2 MR4); assay: In vitro malaria parasite development, 3H-hypoxanthine uptake, CQ-resistant strain; type: cell-based; conditions: for IC50: 48 h exposure from ring stage, 3H-hypoxanthine uptake, geometric mean
# Procedure: (§1) Parasite cultures were exposed to different concentrations of Formula IV or hypoestoxide (from 100× stocks in DMSO) for 48 h, beginning at the ring stage. Concentrations yielding 50% inhibition (IC50) were extrapolated from plots of mean percent negative control activity over inhibitor concentration as measured by the uptake of ^3H-hypoxanthine. Data was analyzed after logarithmic transformation and expressed as the geometric mean IC50 and 95% confidence intervals.
# (§2) Other anti-parasitic agents such as sesquiterpene artemisinin, chloroquine, mixtures thereof, and the like, can also be administered in appropriate doses along with the compounds of formula I-IV.
# [2] = system: B16F1 melanocytes; assay: Inhibition of lung colonization of B16F1 melanocytes in mice; type: in vivo, C57BL/6 Mice; conditions: 5 mg/Kg oral once daily for 10 days; lungs counted on day 16; versus vehicle control
# Procedure: 1×10^5 melanoma cells were injected intravenously into the lateral tail vein of each of 30 mice. Before treatment, mice were randomized into six groups of 5 mice per group. Treatment began one hour after intravenous inoculation of the tumor cells. Drugs, at 5 mg/Kg were administered via oral route, once daily for 10 days. Treatment was stopped on day 10. On day 16, lungs were removed and fixed in 10% formaldehyde. The surface melanoma colonies were counted for each lung and the means were established for each group. The mean for each group was used to calculate % inhibition based on the vehicle control.
# [3] = system: P. falciparum CQ-Sensitive (3D7); assay: In vitro malaria parasite development, 3H-hypoxanthine uptake, CQ-sensitive strain; type: cell-based; conditions: for IC50: 48 h exposure from ring stage, 3H-hypoxanthine uptake, geometric mean
# Procedure: as §1, §2
# [4] = system: P. berghei berghei (EI strain); assay: In vivo effect in malaria-infected mice (blood parasitemia); conditions: female mice, 5 mg/Kg oral once daily for 3 days; Giemsa-stained blood smears
# Procedure: Five female mice per group were infected i.p. with 1×10^5P. berghei berghei (EI strain) parasitized RBCs and 3 days later, oral therapy was started at 5 mg/Kg once daily with either Formula IV or Chloroquine for 3 days. […], blood parasitemia was evaluated on each mouse on Giemsa-stained smears.
# [5] = system: IL-1β production; assay: Inhibition of IL-1β production; type: cell-based
# [6] = system: IL-12 production; assay: Inhibition of IL-12 production; type: cell-based
# [7] = system: IL-6 production; assay: IL-6 production in LPS-stimulated human peripheral blood macrophages (ELISA); type: cell-based
# From the text: At the end of 24-hour culture, supernatants were removed and tested for the presence of IL-6 by enzymne-linked immunosorbent assay.
# [8] = system: TNF-α production; assay: Inhibition of TNF-α production; type: cell-based
# [9] = ratio of IC50 versus hypoestoxide
Compound,IC50 [1] [µM],"times more active than the parent hypoestoxide against the CQ-resistant strain [1, 9] [times]",Inhibition (%) of lung melanoma colonies [2] [%],IC50 [3] [µM],"times more active than hypoestoxide against the CQ-sensitive strain [3, 9]",Reduction of Parasitemia (%) [4] [%],inhibition of IL-1β production (in words) [5],inhibition of IL-12 production (in words) [6],"Inhibition (%) of IL-6 production ([7]; 10 μM, LPS 3 μg/ml, 24 h) [%]","IL-6 ([7]; 10 μM, LPS 3 μg/ml, 24 h culture supernatant, LPS alone 1200 pg/ml) [pg/mL]","inhibition of IL-6 (in words) ([7]; statement of the summary, no conditions given)",inhibition of TNF-α production (in words) [8]
"12,18-dihydrohypoestoxide [Formula IV]",0.12,88,65,1.4,about 7 times,92,–,–,–,–,–,–
CCN(CC)CCCC(C)Nc1ccnc2cc(Cl)ccc12 (stereo not shown) [Chloroquine],–,–,–,–,–,96,–,–,–,–,–,–
"C=C1C(=O)C[C@H]2C[C@@H]3O[C@@]3(C)CC[C@@H]3O[C@@]3(C)C[C@@H](OC(C)=O)[C@H]1C2(C)C [Hypoestoxide, hypoestoxide]",10.6,–,70,10,–,–,inhibits,inhibits,96,50,inhibits,inhibits
